≈ marks a conversion by molar mass, not a printed value.
Tests used:
[1] = test system: Staphylococcus aureus; assay: Antimicrobial activity against Staphylococcus aureus CGMCC1.1361 after 24 hrs by modified microdilution method; type: functional; settings: CGMCC1.1361, 24 h
[2] = test system: Bacillus subtilis; assay: Antimicrobial activity against Bacillus subtilis CGMCC1.1162 after 24 hrs by modified microdilution method; type: functional; settings: CGMCC1.1162, 24 h
[3] = test system: Escherichia coli; assay: Antimicrobial activity against Escherichia coli CGMCC1.1571 after 24 hrs by modified microdilution method; type: functional; settings: CGMCC1.1571, 24 h
[4] = Cytotoxicity against human […] cells assessed as cell survival after 48 hrs by MTT assay; type: functional, cell-based
[5] = test system: HepG2; assay: Cytotoxicity against human HepG2 cells assessed as cell survival after 48 hrs by MTT assay; type: functional, cell-based; settings: HepG2, 48 h
[6] = test system: Candida tropicalis; assay: Antimicrobial activity against Candida tropicalis CGMCC2.3967 after 48 hrs by modified microdilution method; type: functional; settings: CGMCC2.3967, 48 h
[7] = test system: Candida albicans; assay: Antimicrobial activity against Candida albicans CGMCC2.2086 after 48 hrs by modified microdilution method; type: functional; settings: CGMCC2.2086, 48 h
[8] = test system: Aspergillus niger; assay: Antimicrobial activity against Aspergillus niger CGMCC3.316 after 48 hrs by modified microdilution method; type: functional; settings: CGMCC3.316, 48 h
[9] = test system: Pseudomonas fluorescens; assay: Antimicrobial activity against Pseudomonas fluorescens CGMCC1.1828 after 24 hrs by modified microdilution method; type: functional; settings: CGMCC1.1828, 24 h

Compound	MIC [1]	MIC [2]	MIC [3]	IC50 [4]	IC50 [5]	MIC [6]	MIC [7]	MIC [8]	MIC [9]
C[C@H]1[C@H](C)CC[C@]2(C(=O)O)CC[C@]3(C)C(=CC[C@@H]4[C@@]5(C)Cc6c([nH]c7ccc(Cl)cc67)C(C)(C)[C@@H]5CC[C@]43C)[C@H]12	31.2 mg/L (≈ 55.5 µM)	31.2 mg/L (≈ 55.5 µM)	31.2 mg/L (≈ 55.5 µM)	29.9 µM	30.9 µM	> 100 mg/L	> 100 mg/L	> 100 mg/L	31.2 mg/L (≈ 55.5 µM)
C[C@H]1[C@H](C)CC[C@]2(C(=O)O)CC[C@]3(C)C(=CC[C@@H]4[C@@]5(C)Cc6c([nH]c7ccc(Br)cc67)C(C)(C)[C@@H]5CC[C@]43C)[C@H]12	62.5 mg/L (≈ 103 µM)	31.2 mg/L (≈ 51.4 µM)	62.5 mg/L (≈ 103 µM)	62.6 µM	38.4 µM	62.5 mg/L (≈ 103 µM)	62.5 mg/L (≈ 103 µM)	31.2 mg/L (≈ 51.4 µM)	62.5 mg/L (≈ 103 µM)
Cc1ccc2[nH]c3c(c2c1)C[C@]1(C)[C@H]2CC=C4[C@@H]5[C@@H](C)[C@H](C)CC[C@]5(C(=O)O)CC[C@@]4(C)[C@]2(C)CC[C@H]1C3(C)C	62.5 mg/L (≈ 115 µM)	62.5 mg/L (≈ 115 µM)	31.2 mg/L (≈ 57.6 µM)	13.8 µM	17 µM	> 100 mg/L	> 100 mg/L	> 100 mg/L	62.5 mg/L (≈ 115 µM)
COc1ccc2[nH]c3c(c2c1)C[C@]1(C)[C@H]2CC=C4[C@@H]5[C@@H](C)[C@H](C)CC[C@]5(C(=O)O)CC[C@@]4(C)[C@]2(C)CC[C@H]1C3(C)C	31.2 mg/L (≈ 55.9 µM)	31.2 mg/L (≈ 55.9 µM)	31.2 mg/L (≈ 55.9 µM)	31.7 µM	34.6 µM	62.5 mg/L (≈ 112 µM)	> 100 mg/L	> 100 mg/L	62.5 mg/L (≈ 112 µM)
COc1cccc2c3c([nH]c12)C(C)(C)[C@@H]1CC[C@]2(C)[C@H](CC=C4[C@@H]5[C@@H](C)[C@H](C)CC[C@]5(C(=O)O)CC[C@]42C)[C@@]1(C)C3	62.5 mg/L (≈ 112 µM)	62.5 mg/L (≈ 112 µM)	62.5 mg/L (≈ 112 µM)	> 100 µM	> 100 µM	> 100 mg/L	> 100 mg/L	> 100 mg/L	62.5 mg/L (≈ 112 µM)
CCOc1ccc2[nH]c3c(c2c1)C[C@]1(C)[C@H]2CC=C4[C@@H]5[C@@H](C)[C@H](C)CC[C@]5(C(=O)O)CC[C@@]4(C)[C@]2(C)CC[C@H]1C3(C)C	62.5 mg/L (≈ 109 µM)	62.5 mg/L (≈ 109 µM)	62.5 mg/L (≈ 109 µM)	24.5 µM	33 µM	> 100 mg/L	> 100 mg/L	> 100 mg/L	62.5 mg/L (≈ 109 µM)
COC(=O)[C@]12CC[C@@H](C)[C@H](C)[C@H]1C1=CC[C@@H]3[C@@]4(C)Cc5c([nH]c6ccccc56)C(C)(C)[C@@H]4CC[C@@]3(C)[C@]1(C)CC2	15.6 mg/L (≈ 28.8 µM)	31.2 mg/L (≈ 57.6 µM)	31.2 mg/L (≈ 57.6 µM)	> 100 µM	> 100 µM	62.5 mg/L (≈ 115 µM)	62.5 mg/L (≈ 115 µM)	62.5 mg/L (≈ 115 µM)	62.5 mg/L (≈ 115 µM)
COC(=O)[C@]12CC[C@@H](C)[C@H](C)[C@H]1C1=CC[C@@H]3[C@@]4(C)Cc5c([nH]c6ccc(F)cc56)C(C)(C)[C@@H]4CC[C@@]3(C)[C@]1(C)CC2	15.6 mg/L (≈ 27.9 µM)	31.2 mg/L (≈ 55.7 µM)	31.2 mg/L (≈ 55.7 µM)	> 100 µM	97 µM	62.5 mg/L (≈ 112 µM)	62.5 mg/L (≈ 112 µM)	62.5 mg/L (≈ 112 µM)	31.2 mg/L (≈ 55.7 µM)
COC(=O)[C@]12CC[C@@H](C)[C@H](C)[C@H]1C1=CC[C@@H]3[C@@]4(C)Cc5c([nH]c6ccc(Cl)cc56)C(C)(C)[C@@H]4CC[C@@]3(C)[C@]1(C)CC2	62.5 mg/L (≈ 108 µM)	31.2 mg/L (≈ 54.1 µM)	> 100 mg/L	> 100 µM	> 100 µM	> 100 mg/L	> 100 mg/L	62.5 mg/L (≈ 108 µM)	62.5 mg/L (≈ 108 µM)
COC(=O)[C@]12CC[C@@H](C)[C@H](C)[C@H]1C1=CC[C@@H]3[C@@]4(C)Cc5c([nH]c6ccc(Br)cc56)C(C)(C)[C@@H]4CC[C@@]3(C)[C@]1(C)CC2	31.2 mg/L (≈ 50.3 µM)	62.5 mg/L (≈ 101 µM)	> 100 mg/L	> 100 µM	> 100 µM	> 100 mg/L	> 100 mg/L	> 100 mg/L	62.5 mg/L (≈ 101 µM)
COC(=O)[C@]12CC[C@@H](C)[C@H](C)[C@H]1C1=CC[C@@H]3[C@@]4(C)Cc5c([nH]c6ccc(C)cc56)C(C)(C)[C@@H]4CC[C@@]3(C)[C@]1(C)CC2	31.2 mg/L (≈ 56.1 µM)	31.2 mg/L (≈ 56.1 µM)	> 100 mg/L	> 100 µM	> 100 µM	62.5 mg/L (≈ 112 µM)	> 100 mg/L	31.2 mg/L (≈ 56.1 µM)	62.5 mg/L (≈ 112 µM)
COC(=O)[C@]12CC[C@@H](C)[C@H](C)[C@H]1C1=CC[C@@H]3[C@@]4(C)Cc5c([nH]c6ccc(OC)cc56)C(C)(C)[C@@H]4CC[C@@]3(C)[C@]1(C)CC2	31.2 mg/L (≈ 54.6 µM)	31.2 mg/L (≈ 54.6 µM)	62.5 mg/L (≈ 109 µM)	> 100 µM	> 100 µM	> 100 mg/L	> 100 mg/L	> 100 mg/L	> 100 mg/L
